Series [1] has as its target T1, MRP (Homo sapiens, UniProt P33527).
T1 construct: endogenous in cells
As to the kind of experiment: Inhibition of MRP-mediated calcein-AM extrusion (calcein accumulation) in S1MRP and HL60 ADR cells. The series is classed as cell-based.

The target of series [2] is T2, MDR1 (Homo sapiens, UniProt P08183). Briefly: Inhibition of MDR1-mediated calcein-AM extrusion (calcein accumulation) in 3T3 MDR and K562 MDR cells.
The subject of series [3] is P388-C cells. Briefly: Cytotoxicity assay, adriamycin resistance. The series is classed as cell-based, murine. As to conditions: Mus musculus; P388-C control cell line. The text has this:
(§1) Elapsed time is shown on the abscissa and fluorescence intensity in arbitrary units is shown on the ordinate.

For series [4], the system named is P388-MDRa cells. Briefly: Cytotoxicity assay, adriamycin resistance. The class given is cell-based, murine. The conditions noted are these: Mus musculus; P388-MDRa cell line.
Description: as §1

Series [5] has as its system P388-MDRb cells. As to the kind of experiment: Cytotoxicity assay, adriamycin resistance. The series is classed as cell-based, murine. As to conditions: Mus musculus; P388-MDRb cell line.
Description: as §1

Series [6] deals with K562-C cells. As to the kind of experiment: Cytotoxicity assay, 3 days culture with adriamycin. As to conditions: Homo sapiens, 72 h, K562-C cell line, read-out: Resistance to Adriamycin (IC50, ng/ml). The series is classed as cell-based. Here is the method: (§2) Cells were cultured for 3 days under standard conditions in the presence of 0.1-100 ng/ml adriamycin. The number of cells in the different cell cultures is given as the percentage of the number of cells counted in the culture not treated with the drug. As it can well be seen on FIG. 5, the really expressed drug resistance is in much better accordance with the results obtained by the method of the invention based on the measurement of calcein accumulation than with those obtained by the traditional immunological measurement of MDR expression.
(§3) Cells were cultured for 3 days under standard conditions in the presence of 0.1-100 ng/ml adriamycin. The number of cells in the different cell cultures is given as the percentage of the number of cells counted in the culture not treated with the drug.

The subject of series [7] is K562-MDR cells. Briefly: Cytotoxicity assay, 3 days culture with adriamycin. The conditions noted are these: Homo sapiens, 72 h, K562-MDR cell line, read-out: Resistance to Adriamycin (IC50, ng/ml). The class given is cell-based. The procedure: as §2, §3
In series [8] the test system is K562-mMDR cells. As to the kind of experiment: Cytotoxicity assay, 3 days culture with adriamycin. The series is classed as cell-based. The conditions noted are these: Homo sapiens, 72 h, K562-mMDR cell line (inactive mutant MDR protein), read-out: Resistance to Adriamycin (IC50, ng/ml). Here is the method:
as §2, §3

Series [9] concerns P388-C cells. Briefly: Calcein accumulation by fluorescent spectrophotometry in control cells. The conditions noted are these: 100 μmol/l verapamil. The series is classed as cell-based, murine.
Description: as §1

Series [10] has as its system KB3 cells. Briefly: Calcein accumulation by flow cytometry in control cells. The conditions noted are these: 100 μmol/l verapamil pretreatment 5 min, control cell line KB3.
Description: In the experiments shown in FIG. 2 a drug sensitive (control, cell line KB3) and three increasingly multi-drug resistant (cell lines KB-V1a-c) human epidermoid carcinoma cell lines were examined.
As all the specimens were incubated for the same time (10 min) with calcein-AM, the measure of the accumulation of calcein detected exactly after 10 minutes can be taken as the rate of calcein accumulation.
The target of series [11] is MDR dependent ATPase (Homo sapiens, UniProt P08183). The conditions noted are these: cited from earlier work.
Chain of MDR dependent ATPase (P08183 whole entry): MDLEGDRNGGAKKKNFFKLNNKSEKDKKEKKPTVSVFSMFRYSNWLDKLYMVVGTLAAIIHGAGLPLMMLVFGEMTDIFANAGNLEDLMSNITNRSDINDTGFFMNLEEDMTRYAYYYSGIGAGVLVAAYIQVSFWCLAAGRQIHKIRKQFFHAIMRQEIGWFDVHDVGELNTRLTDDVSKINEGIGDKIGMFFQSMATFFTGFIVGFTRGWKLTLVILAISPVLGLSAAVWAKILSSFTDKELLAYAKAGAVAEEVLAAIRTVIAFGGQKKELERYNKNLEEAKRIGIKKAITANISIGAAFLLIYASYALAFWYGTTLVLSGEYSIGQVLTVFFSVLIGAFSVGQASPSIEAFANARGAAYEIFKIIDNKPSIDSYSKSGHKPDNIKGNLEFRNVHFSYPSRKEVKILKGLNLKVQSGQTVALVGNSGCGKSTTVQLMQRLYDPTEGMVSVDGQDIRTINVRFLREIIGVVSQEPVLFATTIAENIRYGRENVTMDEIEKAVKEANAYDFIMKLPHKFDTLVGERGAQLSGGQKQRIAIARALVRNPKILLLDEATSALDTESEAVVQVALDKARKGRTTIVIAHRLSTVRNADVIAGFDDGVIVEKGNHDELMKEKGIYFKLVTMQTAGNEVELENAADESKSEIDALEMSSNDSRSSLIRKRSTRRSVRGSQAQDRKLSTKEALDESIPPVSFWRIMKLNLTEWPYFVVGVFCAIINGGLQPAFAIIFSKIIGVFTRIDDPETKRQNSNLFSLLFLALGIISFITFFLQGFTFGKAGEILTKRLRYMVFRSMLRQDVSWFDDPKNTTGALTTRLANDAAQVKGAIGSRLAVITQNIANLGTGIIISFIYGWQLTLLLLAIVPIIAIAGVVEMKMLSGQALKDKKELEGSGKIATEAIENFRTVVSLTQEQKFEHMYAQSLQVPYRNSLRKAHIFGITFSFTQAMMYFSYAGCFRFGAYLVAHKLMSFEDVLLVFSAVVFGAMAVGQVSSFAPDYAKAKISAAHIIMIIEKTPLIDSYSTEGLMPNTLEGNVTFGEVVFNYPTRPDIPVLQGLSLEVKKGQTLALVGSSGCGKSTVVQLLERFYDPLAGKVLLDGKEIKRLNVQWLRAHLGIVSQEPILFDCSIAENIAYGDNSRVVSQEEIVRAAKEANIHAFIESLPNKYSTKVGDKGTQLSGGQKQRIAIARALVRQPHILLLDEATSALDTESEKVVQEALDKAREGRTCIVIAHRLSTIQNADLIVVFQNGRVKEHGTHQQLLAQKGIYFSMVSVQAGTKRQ
In series [12] the target is T2, MDR1.
Setting [13] is: inhibition of MRP-mediated calcein-AM extrusion, S1MRP and HL60 ADR cells, range of at least 3 independent experiments with each cell line, read-out: IC50 MRP.
Setting [14] is: read-out: IC50 MDR1, inhibition of MDR1-mediated calcein-AM extrusion, 3T3 MDR and K562 MDR cells, range of at least 3 independent experiments, > = 50% inhibition not achieved (a solubility problem, b esterase inhibition).

Consider 21 compounds from US6391656B2, “Assay and reagent kit for evaluation of multi-drug resistance in cells” (SOLVO Biotechnology, priority 1994, dated 2002).

Values after ≈ are worked out from the molar mass of the structure shown. Where two headings read alike, the source gives them in different places.

T1 sequence (P33527 whole entry): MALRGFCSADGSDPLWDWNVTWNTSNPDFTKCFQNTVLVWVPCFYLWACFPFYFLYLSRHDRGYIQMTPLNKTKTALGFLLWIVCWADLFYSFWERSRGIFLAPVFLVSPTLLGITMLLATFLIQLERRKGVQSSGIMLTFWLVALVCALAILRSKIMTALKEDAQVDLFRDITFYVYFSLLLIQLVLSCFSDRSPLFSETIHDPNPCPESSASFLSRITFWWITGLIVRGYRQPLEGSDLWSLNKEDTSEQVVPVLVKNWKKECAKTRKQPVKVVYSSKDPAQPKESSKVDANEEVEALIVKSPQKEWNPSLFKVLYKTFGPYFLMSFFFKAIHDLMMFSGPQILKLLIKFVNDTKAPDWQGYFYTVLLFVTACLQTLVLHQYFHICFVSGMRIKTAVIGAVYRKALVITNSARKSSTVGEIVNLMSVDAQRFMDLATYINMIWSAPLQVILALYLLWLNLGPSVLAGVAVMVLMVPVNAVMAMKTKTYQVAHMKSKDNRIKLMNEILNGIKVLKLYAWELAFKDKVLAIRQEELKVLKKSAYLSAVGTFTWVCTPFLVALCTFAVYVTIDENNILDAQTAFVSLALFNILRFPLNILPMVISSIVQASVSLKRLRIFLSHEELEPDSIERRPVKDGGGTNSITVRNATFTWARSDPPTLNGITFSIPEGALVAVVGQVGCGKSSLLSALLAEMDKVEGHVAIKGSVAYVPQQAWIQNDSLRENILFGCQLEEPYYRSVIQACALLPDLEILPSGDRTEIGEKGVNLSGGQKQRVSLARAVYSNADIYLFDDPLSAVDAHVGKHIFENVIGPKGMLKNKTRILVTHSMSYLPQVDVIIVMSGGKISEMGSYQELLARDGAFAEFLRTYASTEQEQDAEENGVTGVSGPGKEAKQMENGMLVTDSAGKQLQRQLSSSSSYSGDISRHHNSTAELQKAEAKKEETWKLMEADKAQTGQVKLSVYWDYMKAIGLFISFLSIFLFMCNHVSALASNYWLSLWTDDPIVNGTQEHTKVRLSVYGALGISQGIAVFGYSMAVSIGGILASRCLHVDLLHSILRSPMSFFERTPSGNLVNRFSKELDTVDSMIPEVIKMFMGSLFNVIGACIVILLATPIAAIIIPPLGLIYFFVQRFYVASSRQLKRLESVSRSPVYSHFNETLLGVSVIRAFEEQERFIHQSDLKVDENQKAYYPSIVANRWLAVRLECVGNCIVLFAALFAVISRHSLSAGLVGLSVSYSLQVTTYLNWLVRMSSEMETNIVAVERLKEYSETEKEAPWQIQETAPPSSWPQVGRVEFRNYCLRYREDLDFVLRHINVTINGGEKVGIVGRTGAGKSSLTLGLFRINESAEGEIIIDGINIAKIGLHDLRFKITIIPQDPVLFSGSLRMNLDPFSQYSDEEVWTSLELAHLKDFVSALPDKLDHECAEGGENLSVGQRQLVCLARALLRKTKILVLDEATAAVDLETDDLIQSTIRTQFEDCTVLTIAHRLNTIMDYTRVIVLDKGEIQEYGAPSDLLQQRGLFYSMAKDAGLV
T2 sequence (P08183 whole entry): as the sequence (P08183 whole entry) above

As to `O=C1OC(c2ccc(O)c(S(=O)(=O)O)c2)(c2ccc(O)c(S(=O)(=O)O)c2)c2c(Br)c(Br)c(Br)c(Br)c21` [Bromosulfophthalein], the IC50 in series [1] (setting [13]) was 100 to 150 µM; in series [2] (setting [14]), greater than 1000 µM.
As to `C=C[C@H]1C[N@@]2CC[C@H]1C[C@H]2[C@H](O)c1ccnc2ccc(OC)cc12` [Quinine], the IC50 in [1] (setting [13]) is 50 to 100 µM.
With `O=C1C(CC[S+]([O-])c2ccccc2)C(=O)N(c2ccccc2)N1c1ccccc1` (centres unmarked) [Sulfinpyrazone], the IC50 in [1] (setting [13]) is 300 to 500 µM; in [2], greater than 2000 µM.
Taken in the same sequence, the figures for `COc1ccc2c(c1)c(CC(=O)O)c(C)n2C(=O)c1ccc(Cl)cc1` [Indomethacin] were 10 to 20 µM and greater than 800 µM.
Consider `C[CH2][Hg][S]c1ccccc1C(=O)[O-].[Na+]` [Merthiolate], for which the IC50 in [1] (setting [13]) was 10 to 20 µM; in series [2] (setting [14]) it was greater than 200 µM.
As for `CCN1C(=O)C=CC1=O` [NEM, N-ethylmaleimide], the IC50 in [1] (setting [13]) is 0.2 to 0.5 µM; in series [2] it was greater than 50 µM.
With `CC[C@]1(O)C[C@@H]2CN(CCc3c([nH]c4ccccc34)[C@@](C(=O)OC)(c3cc4c(cc3OC)N(C)[C@H]3[C@@](O)(C(=O)OC)[C@H](OC(C)=O)[C@]5(CC)C=CCN6CC[C@]43[C@@H]65)C2)C1` [Vinblastine], the IC50 in series [1] (setting [13]) is 2 to 5 µM.
Take `COc1cccc2c1C(=O)c1c(O)c3c(c(O)c1C2=O)C[C@@](O)(C(=O)CO)C[C@@H]3O[C@H]1C[C@H](N)[C@H](O)[C@H](C)O1` [Adriamycin]: the IC50 in series [3] stood at 0.5 ng/mL (≈ 0.92 nM); in series [4], 4 ng/mL (≈ 7.36 nM); in series [5], 9 ng/mL (≈ 16.6 nM); in [6], 0.7 ng/mL (≈ 1.29 nM); in [7] it was 3.1 ng/mL (≈ 5.7 nM); in [8], 0.35 ng/mL (≈ 0.644 nM).
Take `Clc1ccc(COC(Cn2ccnc2)c2ccc(Cl)cc2Cl)cc1` (centres unmarked) [Econazole]: the results for the IC50 in series [1] (setting [13]) and in [2] were 3 to 10 µM and 1 to 3 µM, respectively.
With `O=[N+]([O-])c1ccc(O)c([N+](=O)[O-])c1` [2,4-DNP], the IC50 was 30 to 50 µM in series [1] (setting [13]) and greater than 200 µM in series [2] (setting [14]).
Turning to `CC/C(=C(\c1ccccc1)c1ccc(OCCN(C)C)cc1)c1ccccc1` [Tamoxifen], in series [1] (setting [13]), the IC50 is 3 to 6 µM.
Consider `O=C(O)CCCc1ccc(N(CCCl)CCCl)cc1` [Chlorambucil], for which the IC50 was 30 to 50 µM in series [1] and greater than 500 µM in series [2].
For the compound `C=C(CC)C(=O)c1ccc(OCC(=O)O)c(Cl)c1Cl` [Ethacrynic acid], the IC50 in series [1] (setting [13]) is 20 to 30 µM; in [2], greater than 800 µM.
Taken in the same sequence, the figures for `CC[C@H]1/C=C/C=C/C[C@@H](C)[C@H](O)[C@@](C)(O)C(=O)[C@@H](C)[C@H](O)[C@@H](C)C(=O)[C@@H](C)[C@H](O)[C@@H](C)/C=C/C(=O)O[C@@H]2[C@H](C)[C@H](CC1)O[C@]1(CC[C@H](C)[C@H](C[C@@H](C)O)O1)[C@H]2C` [Oligomycin] were 1 to 2 µM and 1 to 2 µM.
`COc1ccc(CCN(C)CCCC(C#N)(c2ccc(OC)c(OC)c2)C(C)C)cc1OC` (centres unmarked) [Verapamil]: the “effect on rate of calcein accumulation” value in series [9] is listed as “not influenced”. Further, in series [10], the “effect on calcein accumulation” value is “no detectable effect”.
Regarding “calcein-acetoxy-methylester [calcein-AM]”, in series [11], the “Ka, activation of the MDR dependent ATPase” value was no more than 1 µmol/L.
As for `CCCCC[C@H](O)/C=C/[C@H]1C=CC(=O)[C@@H]1CCCCCCC(=O)O` [Prostaglandin A1], the values for the IC50 in series [1] (setting [13]) and in series [2] (setting [14]) were 3 to 5 µM and greater than 100 µM, respectively.
Take `CCc1oc2ccccc2c1C(=O)c1cc(Br)c(O)c(Br)c1` [Benzbromarone]: the IC50 in [2] was greater than 500 µM.
As for `N#CC(C#N)=NNc1cccc(Cl)c1` [CCCP], the figures for the IC50 in series [1] (setting [13]) and in [12] were 10 to 30 µM and greater than 200 µM, respectively.
As to `CCCN(CCC)S(=O)(=O)c1ccc(C(=O)O)cc1` [Probenacid, Probenecid], the IC50 in series [1] (setting [13]) is 500 to 800 µM; in [2] it was greater than 2000 µM.
The matching figures for `O=c1c(-c2ccc(O)cc2)coc2cc(O)cc(O)c12` [Genistein]: 150 to 200 µM and greater than 1000 µM.
